Laboratory results as given in ChEMBL document CHEMBL5209564, “Superclomeleon biosensor based assay for SLC12A3 using HEK-293 SLC12A3 OE cells” (2022).

Target: T1, Solute carrier family 12 member 3 (Homo sapiens) (UniProt P55017)
T1 sequence (whole entry): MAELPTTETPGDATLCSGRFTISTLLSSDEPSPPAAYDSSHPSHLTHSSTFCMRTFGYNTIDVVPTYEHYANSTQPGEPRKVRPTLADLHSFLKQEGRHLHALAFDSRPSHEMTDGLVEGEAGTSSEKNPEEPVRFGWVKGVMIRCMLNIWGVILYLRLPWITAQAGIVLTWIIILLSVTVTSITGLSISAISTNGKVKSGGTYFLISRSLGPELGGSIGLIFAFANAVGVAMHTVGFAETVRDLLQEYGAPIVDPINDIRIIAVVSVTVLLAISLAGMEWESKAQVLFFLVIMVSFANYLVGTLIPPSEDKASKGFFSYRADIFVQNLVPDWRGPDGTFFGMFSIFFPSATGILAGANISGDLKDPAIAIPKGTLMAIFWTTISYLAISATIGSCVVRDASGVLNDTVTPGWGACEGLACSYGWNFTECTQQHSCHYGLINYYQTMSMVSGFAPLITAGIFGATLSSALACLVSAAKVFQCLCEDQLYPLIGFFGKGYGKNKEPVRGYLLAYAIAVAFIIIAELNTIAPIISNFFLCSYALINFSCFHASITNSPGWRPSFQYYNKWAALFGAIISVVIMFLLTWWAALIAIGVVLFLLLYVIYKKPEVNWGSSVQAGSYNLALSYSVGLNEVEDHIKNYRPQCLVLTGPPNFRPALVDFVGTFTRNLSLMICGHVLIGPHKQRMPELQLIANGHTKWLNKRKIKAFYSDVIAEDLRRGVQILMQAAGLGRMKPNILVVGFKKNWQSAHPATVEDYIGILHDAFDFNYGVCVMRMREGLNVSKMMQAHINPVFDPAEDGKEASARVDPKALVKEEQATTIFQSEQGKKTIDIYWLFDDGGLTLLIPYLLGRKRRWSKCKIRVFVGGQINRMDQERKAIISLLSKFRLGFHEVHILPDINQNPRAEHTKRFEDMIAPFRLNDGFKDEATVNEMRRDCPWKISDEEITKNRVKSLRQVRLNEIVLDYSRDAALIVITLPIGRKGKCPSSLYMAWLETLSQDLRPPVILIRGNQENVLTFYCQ
Details: HEK293
Description: Substrate uptake by the thiazide-sensitive electroneutral NaCl co-transporter (NCC, SLC12A3) as assessed by a Cl- sensitive FRET (Fluorescence Resonance Energy Transfer) sensor (SuperClomeleon) in HEK-293 JumpIN-SLC12A3 cells (PubChem AID: 1794834)

Question: Which proof of principle does the source give for `Cl` here?
Answer: Substrate. In Comparison To Wild-Type And Not-Induced Cells, Cells With Induced Slc12A3 Expression Showed A Specific Transporter Activity, Upon Substrate Addition, Detected As Significantly Higher Sensor Fluorescence Quenching.
